Laboratory results taken from EP3558896B1, “USE OF ARYL S[…] TRIAMIDE UREASE INHIBITORS WITH PHOSPHORUS-[…] FERTILIZERS” (BASF SE, priority 2016, dated 2018).

Assay: Decomposition of urease inhibitors on treated urea granules mixed with triple super phosphate (TSP) granules
Assay type: physicochemical
Conditions: after one day in the absence of TSP granules

SMILES	decomposition of the urease inhibitors
CCCCNP(N)(N)=S [NBPT, N-n-butylthiophosphoric acid triamide]	no decomposition
CCCNP(N)(N)=S [NPPT, N-n-propylthiophosphoric acid triamide]	no decomposition
